The record followed here is patent US10245249B2, “Pharmaceutical compositions comprising nitroxyl donors” (Cardioxyl Pharmaceuticals, Inc., priority 2013, dated 2019).

Series [1] in a line: HNO production determined via N2O quantification (GC headspace analysis). It is filed as physicochemical. Conditions: PBS, 37° C. An outline of the steps:
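Compounds dissolved in argon-purged anhydrous DMF were added to argon-purged PBS in sealed vials at 37° C for the set incubation time; headspace N2O was measured by GC with micro-ECD. N2O gas and CXL-1020 served as standards, and relative N2O yield (%) was calculated per incubation time.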

Series [2] is described as follows: In vitro stability (half-life) in phosphate buffered saline (PBS) pH 7.4. Conditions: pH 7.4, 5 μM, PBS pH 7.4, 37° C., read-out: T1/2 (minutes) PBS. In kind it is physicochemical. As for the experimental part: (§1) Certain compounds from Tables 1 and 2 and CXL-1020 were tested for their stability in phosphate buffered saline (PBS) and plasma. The assay system comprised (i) PBS, or plasma from rat, dog or human (at least 3 donors, male, pooled) at pH 7.4, and (ii) for tests conducted in plasma, an anticoagulant (sodium heparin or sodium citrate). Each test compound (5 μM) was incubated in PBS or plasma at 37° C. on a THERMOMIXER® with shaking. Three samples (n=3) were taken at each of seven sampling time points: 0, 10, 30, 60, 90, 180 and 360 minutes. The samples were immediately combined with 3 volumes (i.e., 3 times the volume of PBS or plasma) of acetonitrile containing 1% formic acid and an internal standard to terminate the reaction. AB SCIEX API 3000 LC-MS/MS analysis of the test compounds was performed without a standard curve. Half-lives (T1/2) of the test compounds were determined from graphs of the percent remaining values using the peak area response ratio. For compounds tested multiple times, the value provided in the Table represents an average of the replicate assays.

Series [3] in a line: In vitro stability (half-life) in rat plasma. In kind it is in vitro ADME. Particulars: rat plasma pH 7.4 with anticoagulant, 37° C.; for half-life at 5 μM: male, rat, plasma, pH 7.4, 5 μM, read-out: T1/2 (minutes) Rat; for T1/2 (minutes) Rat: 5 μM. As to the method:
as §1

The nature of series [4]: In vitro stability (half-life) in dog plasma. In kind it is in vitro ADME. Conditions: dog plasma pH 7.4 with anticoagulant, 37° C.; for half-life at 5 μM: male, dog, plasma, pH 7.4, 5 μM, read-out: T1/2 (minutes) Dog. As to the method: as §1
Series [5] is described as follows: In vitro stability (half-life) in human plasma. In kind it is in vitro ADME. Conditions: male, human plasma pH 7.4 with anticoagulant, 37° C., read-out: T1/2 (minutes) Human. As to the method: as §1
For another series, the system named is beagle dogs. Briefly: Canine peripheral vein toxicity model, 24 hour infusion (clinical pathology markers of inflammation: WBC, fibrinogen, CRP). In kind it is in vivo. As for the experimental part:
Key inflammatory markers measured include white blood cells (WBC), fibrinogen, and C-reactive protein (CRP).
After 24 hours of infusion, clinical pathology changes similar to those observed in previous studies using an implanted central catheter were detected.
Studies were conducted in male and female beagle dogs. Animals were allowed free access to drinking water and a commercial canine diet under standard laboratory conditions. Animals were fasted prior to blood sample collections when indicated by the study protocol. Fluorescent lighting was provided via an automatic timer for approximately 12 hours per day. On occasion, the dark cycle was interrupted intermittently due to study-related activities. Temperature and humidity were monitored and recorded daily and maintained to the maximum extent possible between 64° F. to 84° F. and 30% to 70%, respectively. The dogs were acclimated for a period of at least 1 week. During this period, the animals were weighed weekly and observed with respect to general health and any signs of disease. The animals were acclimated to wearing a jacket for at least three days prior to dose administration. Additionally, the animals were also acclimated to wearing an Elizabethan collar (e-collar) during the jacket acclimation.
Animals were catheterized the day prior to dose administration. A percutaneous catheter was placed (using aseptic technique and sterile bandaging) in the cephalic vein distal to the elbow. The animals were free-moving in their cages during continuous infusion dose administration. To facilitate continuous infusion dose administration, the peripheral catheter was attached to an extension set routed underneath a canine jacket and then attached to a tether infusion system. To prevent the animals from accessing/removing the peripherally placed percutaneous catheter, the catheterization site was bandaged using Vet Wrap and an e-collar was placed on the animals for the duration of the treatment (i.e., the catheterized period). During the pretreatment period, the venous catheter was infused continuously at a rate of approximately 2-4 mL/hr with 0.9% sodium chloride for injection, USP (saline) to maintain catheter patency. Prior to dosing, the infusion system was pre-filled (slow bolus infusion) with the respective dosing solution to ensure that dosing began as soon as the infusion pump was started. The infusion line was connected to a reservoir containing the control or test compound and the infusion was started. Test compositions were infused continuously, at a predetermined constant infusion rate (1 or 2 mL/kg/hr), for 24 hours and were compared at molar equivalent dose rates.
A detailed clinical examination of each animal was performed twice daily and body temperature measurements and blood samples for clinical pathology were collected from all animals pre-dose and 6 hours, 12 hours, 24 hours and 72 hours post start of composition infusion. At the termination of the study, all animals were euthanized at their scheduled necropsy and complete necropsy examinations were performed. Selected tissues were collected, fixed and stored for potential future microscopic examination. The cephalic vein containing the infusion catheter was dissected intact along with the brachial vein and examined along its entire length. The location of the catheter tip was marked on the unfixed specimen. After fixation, the specimen was trimmed and processed to slide to provide transverse histologic sections representing the catheter tip and surrounding tissues both proximal and distal to the catheter tip (i.e., 1 cm distal to the catheter tip, at the catheter tip, and 1, 5, 10, 15, and 20 cm proximal to the catheter tip). Relative to the catheter tip, “proximal” was defined as closer to the heart and “distal” was defined as further from the heart.
Each compound was formulated with CAPTISOL® (7% w/v) in sterile water at a pH of 4. […]

Series [6] has as its system dogs. The series can be described thus: Canine implanted central catheter 72 hour continuous infusion model (clinical and microscopic pathology of vasculature). It is filed as in vivo. As to the method: To determine the cause of the inflammation and hind limb swelling, a series of 72-hour continuous infusion investigative studies were conducted over the following 6 months. […] The first site of inflammation, the catheter insertion site, caused the dog hind limb swelling and inflammation observed in the early-terminated follow-up study. Increasing infusate pH from 4 to 6 decreased inflammation, improving the inflammatory profile by approximately 3-fold (see FIG. 4).
Confirmation of this was obtained through evaluating the nitroxyl donors through detailed histopathology of the vasculature at the site of insertion of into the femoral vein (15 cm distal to the catheter tip), along the catheter track to the catheter tip, and past the tip downstream 20 cm.
A composite score was calculated from the sum of these findings scores. In FIG. 3, the cumulative histology composite score ranges from 0-2 (low severity) to 11-12 (high severity). […] The NOAEL values determined based on these microscopic pathology markers for a series of nitroxyl donors, expressed in molar equivalent dose rates (μg/kg/min) to CXL-1020, are provided in Table 8.

The subject of series [7] is dogs. The series can be described thus: Toxicological profile of compositions formulated at pH 4 or pH 6, 24 hour infusion at 3 μg/kg/min. It is filed as in vivo. Particulars: 1:1 molar donor:CAPTISOL, infused at 3 μg/kg/min, FIG. 4. As to the method:
For samples at a pH of 4, the compositions were prepared by admixing a 1:1 molar ratio of the nitroxyl donor:CAPTISOL®, lyophilizing the admixture, then diluting the lyophilized admixture into D5W. For samples at a pH of 6, the compositions were prepared by admixing a 1:1 molar ratio of the nitroxyl donor:CAPTISOL®, lyophilizing the admixture, then diluting the lyophilized admixture into D5W with 5 mM potassium phosphate. Compounds were infused at a rate of 3 μg/kg/min.

Series [8] in a line: Exploratory studies on the cause of CXL-1020 side effects (byproduct, alternative short half-life donors). It is filed as in vivo. Particulars: studies conducted with the byproduct. As for the experimental part: Exploratory studies were continued to determine the cause of the undesirable side effects of CXL-1020 at the higher, but still clinically desirable, doses. […] Studies were conducted with alternative Nitroxyl donors that were structurally unrelated to CXL-1020 but had similar half-lives for nitroxyl donation (half-lives of about 2 minutes). In all instances, local vascular side effects at the catheter tip were observed.

A value given as a limit tells only on which side of the number the result lay.

For the compound `Cc1oncc1S(=O)(=O)NO` [Compound 3, N-Hydroxy-5-methyl-1,2-oxazole-4-sulfonamide], in series [1], the “Relative N2O Yield (90 minutes incubation)” value stood at 45%. Moreover, the “Relative N2O Yield (360 minutes incubation)” value in series [1] is 56%. The half-life at 5 μM came to 98 min in series [2], 37 min in series [3], 38 min in series [4] and 71 min in series [5].

`CC(C)NC(=O)c1cc(S(=O)(=O)NO)cs1` [Compound 5, 4-(Hydroxysulfamoyl)-N-(propan-2-yl)thiophene-2-carboxamide]: the “Relative N2O Yield (90 minutes incubation)” value in series [1] stood at 48%. Also, in [1], the “Relative N2O Yield (360 minutes incubation)” value is 72%. In addition, the half-life at 5 μM turned out to be 136 min in series [2], 104 min in [3], 28 min in series [4] and 24 min in [5].

Regarding `O=S(=O)(NO)c1cccnc1` [Compound 26, N-Hydroxypyridine-3-sulfonamide], the “Relative N2O Yield (90 minutes incubation)” value in series [1] is 73.5%. Moreover, the results for the half-life at 5 μM in series [2], in series [3] and in series [5] were 53 min, 29 min and 45 min, respectively.

Regarding `Cc1noc(C)c1S(=O)(=O)NO` [Compound 27, N-Hydroxy-3,5-dimethyl-1,2-oxazole-4-sulfonamide], in series [1], the “Relative N2O Yield (90 minutes incubation)” value amounted to 35.5% and the “Relative N2O Yield (360 minutes incubation)” value is recorded as 66%. Further, the “T1/2 (minutes) Rat” value in [3] was 75 min. Also, the half-life at 5 μM in series [5] was 99 min.

In the case of `O=S(=O)(NO)c1ccc(Cl)s1` [Compound 86, 5-Chloro-N-hydroxythiophene-2-sulfonamide], the half-life at 5 μM came to 38 min in series [2], 12 min in series [4] and 18 min in series [5]. Further, the “NOAEL (μg/kg/min) (actual)” value in the series on beagle dogs (based on clinical pathology markers (WBC, fibrinogen, CRP), 24 hour infusion, CAPTISOL 7% w/v, pH 4) is 3 µg/kg/min. Also, in the series on beagle dogs (clinical pathology markers), the “NOAEL compared with CXL-1020” value is “significantly higher than that of CXL-1020”. Moreover, the “NOAEL (μg/kg/min) (molar equivalent to CXL-1020)” value with dogs [6] (based on microscopic pathology markers (edema, hemorrhage, vascular and perivascular inflammation)) is ≥180 µg/kg/min. The “toxicological profile relative to CXL-1020” value in the series with dogs [6] (microscopic pathology, Table 8) is “substantially improved toxicological profile relative to CXL-1020”. For the same compound, the “effect of increasing infusate pH from approximately 4 to approximately 6 on toxicology” value in the series with dogs [7] is recorded as “improved the toxicology”.

Take `O=S(=O)(NO)c1cccc(OC(F)(F)F)c1` [Compound 92, N-Hydroxy-3-(trifluoromethoxy)benzene-1-sulfonamide]: the “Relative N2O Yield (90 minutes incubation)” value in series [1] is on record as 59%. Moreover, the half-life at 5 μM was determined as 58 min in series [2], 35 min in series [3], 19 min in series [4] and 40 min in series [5]. Moreover, in series [3], the “T1/2 (minutes) Rat” value came out at 35.1 min. Moreover, the “T1/2 (minutes) Dog” value in series [4] (5 μM) is 18.5 min.

Regarding `CS(=O)(=O)c1ccc(S(=O)(=O)NO)cc1` [Compound 93, N-Hydroxy-4-methanesulfonylbenzene-1-sulfonamide], the “Relative N2O Yield (90 minutes incubation)” value in series [1] is listed as 86%. For the same compound, the values for the half-life at 5 μM in [2], in series [3] and in [5] were 68 min, 38 min and 35 min, respectively.

For the compound `CS(=O)(=O)c1ccccc1S(=O)O` [byproduct of CXL-1020], the side effects entry in series [8] is given as “negative”.
